Common to all, as to assay: biochemical
Holding throughout (parameters): in vitro kinase selectivity panel, protein and lipid kinases, single concentration, ATP at Km
Holding throughout (details): ATP at Km

Experiment [1] has as its target T1, Abl(T315I)(h) (Homo sapiens, UniProt P00519, T315I).
T1 construct: gene ABL1
The gist of the method: (§1)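 Single-point screen against a protein and lipid kinase panel: inhibitor at 1 μM. ATP concentration for every kinase equivalent to its Km.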

The target in experiment [2] is T2, CDK5/p35(h) (Homo sapiens, UniProt Q00535).
T2 construct: p35
The procedure, abridged: as §1

The target in experiment [3] is T3, CHK1(h) (Homo sapiens, UniProt O14757).
T3 construct: gene CHEK1
The gist of the method:
as §1

The target in experiment [4] is T4, CHK2(h) (Homo sapiens, UniProt O96017).
T4 construct: gene CHEK2
The procedure, abridged: as §1

In experiment [5] the target is T5, CK1γ1(h) (Homo sapiens, UniProt Q9HCP0).
T5 construct: gene CSNK1G1
The gist of the method:
as §1

Experiment [6] has as its target T6, CK1γ2(h) (Homo sapiens, UniProt P78368).
T6 construct: gene CSNK1G2
The gist of the method: as §1

Experiment [7] addresses EGFR(L858R)(h) (Homo sapiens, UniProt P00533, L858R). The gist of the method:
as §1

In experiment [8] the target is EGFR(T790M)(h) (Homo sapiens, UniProt P00533, T790M). The gist of the method: as §1
Experiment [9] has as its target Flt3(h) (Homo sapiens, UniProt P36888). The procedure, abridged:
as §1

The target of experiment [10] is T7, GSK3β(h) (Homo sapiens, UniProt P49841).
T7 construct: gene GSK3B
The procedure, abridged:
as §1

Experiment [11] deals with T8, Mer(h) (Homo sapiens, UniProt Q12866).
T8 construct: gene MERTK
The gist of the method: as §1

Experiment [12] deals with Met(h) (Homo sapiens, UniProt P08581). The procedure, abridged: as §1
Experiment [13] concerns the target PAK4(h) (Homo sapiens, UniProt O96013). The gist of the method: as §1
Experiment [14] addresses T9, PKCα(h) (Homo sapiens, UniProt P17252).
T9 construct: gene PRKCA
The gist of the method: as §1

The target in experiment [15] is T10, Ron(h) (Homo sapiens, UniProt Q04912).
T10 construct: gene MST1R
The gist of the method:
as §1

For experiment [16], the target named is T11, Snk(h) (Homo sapiens, UniProt Q9NYY3).
T11 construct: gene PLK2
The procedure, abridged:
as §1

Experiment [17] deals with T12, TrkA(h) (Homo sapiens, UniProt P04629).
T12 construct: gene NTRK1
The gist of the method:
as §1

Broadly, the inhibition is the drop in the measured response relative to a control, in per cent.

Chain of Met(h) (P08581 whole entry): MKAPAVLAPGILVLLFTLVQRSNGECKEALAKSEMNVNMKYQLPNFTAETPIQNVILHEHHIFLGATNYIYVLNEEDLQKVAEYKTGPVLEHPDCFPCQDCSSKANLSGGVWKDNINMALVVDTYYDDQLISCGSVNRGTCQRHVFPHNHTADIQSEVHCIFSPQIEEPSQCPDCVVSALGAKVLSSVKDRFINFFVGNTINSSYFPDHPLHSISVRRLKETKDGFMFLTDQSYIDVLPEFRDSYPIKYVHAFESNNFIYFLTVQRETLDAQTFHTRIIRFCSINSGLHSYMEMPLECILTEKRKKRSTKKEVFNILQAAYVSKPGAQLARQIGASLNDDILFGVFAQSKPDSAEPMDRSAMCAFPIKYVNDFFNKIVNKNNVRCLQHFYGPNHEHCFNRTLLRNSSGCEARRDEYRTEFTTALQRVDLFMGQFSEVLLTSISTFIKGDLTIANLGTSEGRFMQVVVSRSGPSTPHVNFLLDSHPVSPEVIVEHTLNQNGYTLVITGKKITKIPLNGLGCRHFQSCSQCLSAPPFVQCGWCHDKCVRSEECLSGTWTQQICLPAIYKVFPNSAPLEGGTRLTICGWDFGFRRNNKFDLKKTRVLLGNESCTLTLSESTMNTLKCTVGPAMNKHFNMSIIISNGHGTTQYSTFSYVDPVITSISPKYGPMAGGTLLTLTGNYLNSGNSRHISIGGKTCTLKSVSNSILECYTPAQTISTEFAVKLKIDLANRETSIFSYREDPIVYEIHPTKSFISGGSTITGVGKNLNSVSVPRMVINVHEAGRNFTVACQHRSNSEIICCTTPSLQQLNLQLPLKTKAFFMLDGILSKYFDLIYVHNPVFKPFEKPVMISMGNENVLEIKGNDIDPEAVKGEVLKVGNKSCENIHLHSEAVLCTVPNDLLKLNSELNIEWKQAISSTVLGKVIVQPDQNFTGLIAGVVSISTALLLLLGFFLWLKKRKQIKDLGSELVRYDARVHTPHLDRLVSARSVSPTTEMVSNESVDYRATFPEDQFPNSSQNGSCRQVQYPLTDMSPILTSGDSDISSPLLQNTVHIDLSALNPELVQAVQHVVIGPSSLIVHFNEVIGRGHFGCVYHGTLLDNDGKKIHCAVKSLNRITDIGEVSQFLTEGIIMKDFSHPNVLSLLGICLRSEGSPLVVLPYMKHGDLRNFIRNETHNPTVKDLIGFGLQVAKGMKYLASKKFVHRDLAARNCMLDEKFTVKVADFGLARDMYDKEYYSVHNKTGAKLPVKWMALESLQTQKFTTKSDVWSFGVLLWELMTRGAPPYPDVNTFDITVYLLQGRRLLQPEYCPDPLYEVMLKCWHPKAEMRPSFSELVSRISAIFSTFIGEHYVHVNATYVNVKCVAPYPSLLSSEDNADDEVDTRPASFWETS
T6 sequence (P78368 whole entry): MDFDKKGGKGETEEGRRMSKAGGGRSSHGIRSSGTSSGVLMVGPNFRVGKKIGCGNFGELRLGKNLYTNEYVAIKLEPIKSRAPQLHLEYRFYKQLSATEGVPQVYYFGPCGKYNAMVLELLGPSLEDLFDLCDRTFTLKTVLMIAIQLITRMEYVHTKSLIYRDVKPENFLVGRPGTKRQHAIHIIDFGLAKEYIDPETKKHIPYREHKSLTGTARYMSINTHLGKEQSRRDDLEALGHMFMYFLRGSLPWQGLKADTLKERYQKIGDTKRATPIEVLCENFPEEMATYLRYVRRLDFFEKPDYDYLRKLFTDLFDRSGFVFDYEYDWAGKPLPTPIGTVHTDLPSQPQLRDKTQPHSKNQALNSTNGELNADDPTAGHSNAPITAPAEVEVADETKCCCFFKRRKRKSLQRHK
Chain of Flt3(h) (P36888 whole entry): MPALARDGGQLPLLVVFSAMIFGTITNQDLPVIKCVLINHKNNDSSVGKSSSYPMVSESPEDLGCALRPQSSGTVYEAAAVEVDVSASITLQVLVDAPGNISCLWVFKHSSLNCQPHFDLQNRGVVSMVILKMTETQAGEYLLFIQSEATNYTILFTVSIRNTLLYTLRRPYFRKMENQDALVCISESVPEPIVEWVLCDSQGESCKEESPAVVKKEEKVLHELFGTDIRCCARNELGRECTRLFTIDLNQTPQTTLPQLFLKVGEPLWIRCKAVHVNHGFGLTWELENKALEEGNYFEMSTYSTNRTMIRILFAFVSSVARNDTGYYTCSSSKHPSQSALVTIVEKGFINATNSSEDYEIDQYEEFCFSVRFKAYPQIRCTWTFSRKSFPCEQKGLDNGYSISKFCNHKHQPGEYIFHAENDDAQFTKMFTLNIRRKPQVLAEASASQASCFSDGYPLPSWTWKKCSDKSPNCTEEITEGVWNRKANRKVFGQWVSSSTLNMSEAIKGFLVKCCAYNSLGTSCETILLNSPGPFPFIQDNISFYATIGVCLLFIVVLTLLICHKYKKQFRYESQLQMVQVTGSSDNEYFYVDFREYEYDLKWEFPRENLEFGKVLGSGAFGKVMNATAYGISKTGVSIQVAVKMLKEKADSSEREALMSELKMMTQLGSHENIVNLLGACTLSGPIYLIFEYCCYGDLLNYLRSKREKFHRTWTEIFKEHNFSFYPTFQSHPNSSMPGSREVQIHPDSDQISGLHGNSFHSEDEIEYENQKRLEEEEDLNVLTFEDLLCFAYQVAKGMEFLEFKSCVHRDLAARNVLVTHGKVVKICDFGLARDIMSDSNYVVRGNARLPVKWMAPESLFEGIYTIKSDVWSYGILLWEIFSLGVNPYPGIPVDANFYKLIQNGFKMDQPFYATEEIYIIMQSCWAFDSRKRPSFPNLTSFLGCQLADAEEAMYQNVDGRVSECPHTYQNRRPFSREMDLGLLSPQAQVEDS
Chain of EGFR(T790M)(h) (P00533 whole entry T790M): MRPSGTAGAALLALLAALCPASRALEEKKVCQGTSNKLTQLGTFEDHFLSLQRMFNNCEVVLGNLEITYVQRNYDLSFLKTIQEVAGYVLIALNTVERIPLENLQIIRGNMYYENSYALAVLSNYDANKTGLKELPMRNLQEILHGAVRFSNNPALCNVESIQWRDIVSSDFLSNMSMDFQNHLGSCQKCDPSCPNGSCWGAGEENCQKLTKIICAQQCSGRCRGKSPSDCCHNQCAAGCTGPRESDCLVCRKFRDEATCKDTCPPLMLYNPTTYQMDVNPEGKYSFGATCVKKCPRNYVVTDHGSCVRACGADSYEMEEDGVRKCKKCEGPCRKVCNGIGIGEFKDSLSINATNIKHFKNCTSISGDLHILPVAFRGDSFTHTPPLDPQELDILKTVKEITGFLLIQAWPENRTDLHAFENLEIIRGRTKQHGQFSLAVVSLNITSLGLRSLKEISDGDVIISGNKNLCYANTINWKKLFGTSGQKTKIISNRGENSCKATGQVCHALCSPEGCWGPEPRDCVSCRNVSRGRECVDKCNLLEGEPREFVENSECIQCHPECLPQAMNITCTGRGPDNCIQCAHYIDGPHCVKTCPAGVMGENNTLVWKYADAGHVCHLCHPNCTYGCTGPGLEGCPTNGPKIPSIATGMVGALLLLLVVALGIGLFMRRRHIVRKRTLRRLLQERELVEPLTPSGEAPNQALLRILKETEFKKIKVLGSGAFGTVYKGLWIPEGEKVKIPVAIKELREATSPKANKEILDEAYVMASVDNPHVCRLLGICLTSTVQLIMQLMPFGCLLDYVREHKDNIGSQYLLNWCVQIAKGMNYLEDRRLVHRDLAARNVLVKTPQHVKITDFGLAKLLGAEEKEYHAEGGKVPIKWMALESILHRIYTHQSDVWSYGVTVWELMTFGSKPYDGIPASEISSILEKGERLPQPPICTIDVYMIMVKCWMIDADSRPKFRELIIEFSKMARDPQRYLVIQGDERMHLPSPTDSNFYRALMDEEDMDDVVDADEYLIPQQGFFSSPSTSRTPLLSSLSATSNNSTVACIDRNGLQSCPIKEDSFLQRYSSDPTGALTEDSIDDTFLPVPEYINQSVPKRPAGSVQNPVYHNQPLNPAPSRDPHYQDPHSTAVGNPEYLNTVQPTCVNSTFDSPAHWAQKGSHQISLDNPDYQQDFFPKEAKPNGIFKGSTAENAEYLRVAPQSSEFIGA
T7 sequence (P49841 whole entry): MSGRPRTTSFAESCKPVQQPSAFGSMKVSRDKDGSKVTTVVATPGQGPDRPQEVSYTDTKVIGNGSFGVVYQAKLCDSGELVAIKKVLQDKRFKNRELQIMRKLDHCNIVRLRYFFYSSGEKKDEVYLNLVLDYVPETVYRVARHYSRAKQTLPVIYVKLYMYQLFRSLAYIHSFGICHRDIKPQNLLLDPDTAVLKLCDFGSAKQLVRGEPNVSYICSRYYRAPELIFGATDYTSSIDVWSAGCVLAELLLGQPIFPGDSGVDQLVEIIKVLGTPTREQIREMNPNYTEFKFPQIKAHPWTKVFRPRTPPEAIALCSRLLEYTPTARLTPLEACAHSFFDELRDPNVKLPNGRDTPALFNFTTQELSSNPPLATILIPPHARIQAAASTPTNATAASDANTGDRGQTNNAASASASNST
T2 sequence (Q00535 whole entry): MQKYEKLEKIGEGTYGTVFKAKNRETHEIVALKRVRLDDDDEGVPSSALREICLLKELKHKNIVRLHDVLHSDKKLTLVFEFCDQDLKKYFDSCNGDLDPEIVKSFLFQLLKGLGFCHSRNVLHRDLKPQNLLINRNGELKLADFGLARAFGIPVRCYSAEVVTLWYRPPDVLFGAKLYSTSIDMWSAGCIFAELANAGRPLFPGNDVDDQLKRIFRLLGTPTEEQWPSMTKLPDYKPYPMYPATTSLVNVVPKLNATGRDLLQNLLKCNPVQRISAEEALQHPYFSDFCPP
T2 sequence (Q15078 whole entry partner): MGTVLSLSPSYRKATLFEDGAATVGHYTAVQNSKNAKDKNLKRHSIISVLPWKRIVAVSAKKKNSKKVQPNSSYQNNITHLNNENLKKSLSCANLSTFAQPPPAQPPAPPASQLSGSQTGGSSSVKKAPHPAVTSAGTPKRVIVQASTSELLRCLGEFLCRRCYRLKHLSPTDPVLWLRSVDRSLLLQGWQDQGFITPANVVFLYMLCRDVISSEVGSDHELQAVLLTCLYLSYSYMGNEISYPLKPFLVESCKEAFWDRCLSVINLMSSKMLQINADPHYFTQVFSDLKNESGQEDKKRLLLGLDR

Turning to `CC[C@@H](N)CNc1ccnc(-c2cc(-c3cnn(C)c3)ccc2O)n1` [CRT0066101], the inhibition at 1 µM is 5% in experiment [1]; 95% in experiment [2]; -2% in experiment [3]; 26% in experiment [4]; -5% in [5]; 0% in experiment [6]. The inhibition at 1 µM in [7] is -1%; in experiment [8], -2%; in experiment [9], 4%; in [10] it was 18%; in experiment [11], 66%; in experiment [12], 12%. For the same molecule, the inhibition at 1 µM was 4% in experiment [13]; 4% in [14]; -8% in experiment [15]; -1% in experiment [16]; 23% in experiment [17].

For the origin of these results see publication PMC5391474, “Investigation of the Role of Protein Kinase D in Human Rhinovirus Replication” (Journal of Virology, 2017).
